Test results taken from patent US5227163A, “Lice-repellant compositions” (priority 1992, dated 1993).

These compounds were tested on lice (assay: Standard in vitro test on filter paper (petri-dish lice repellency)). Conditions: 10 min, 20±3° C.
Experimental: Screening tests were performed on many substances of the following groups: terpenes (hydrocarbons), terpenoid alcohols, terpenoid esters, terpenoid aldehydes and ketones, essential oils which contain terpenoids and perfumes which contain terpenoids, as well as various general insect repellents, for lice-repellency. Each experiment included exposure of the lice to different concentrations of the tested substance, and measuring the dose response of those materials.
A petri-dish method was used to examine the repellency of the solutions for lice. A filter paper (Whatman No. 4, 5.5 cm in diameter) was secured in a petri-dish. A 100 μl portion of the test solution was placed on a corduroy patch (1.5 cm^2). The material was allowed to dry for 30 min. at room temperature (20±3° C.) and the patch was placed at the periphery of the petri-dish. A patch treated with a control solution (96% Ethanol) was placed on the opposite side of the dish. Twenty female lice which had been fed 24 hours previously were placed in the middle of the dish. A box was placed over the dish and it was covered with a dark cloth in order to keep the test area in the dark. The experiment was carried out at room temperature (20°±3° C.) and lasted 10 min. The number of lice on the treated and controlled patches as well as on the area between the patches was recorded in a protocol. The experiment was repeated three times for each sample.
% repellency was calculated by the following formula:
where: T=number of lice on the treated patch
C=number of lice on the untreated patch
The following terms were recorded:
RC80 =Concentration giving 80% repellency.
RC50 =Concentration giving 50% repellency.
RD80 =mg/cm^2 giving 80% repellency.
RD50 =mg/cm^2 giving 50% repellency.

Compound	RC50 (Concentration giving 50% repellency)	RC80 (Concentration giving 80% repellency)	RD50 (mg/cm^2 giving 50% repellency)	RD80 (mg/cm^2 giving 80% repellency)
C=C(C)C1CCC(C)C(OC(C)=O)C1 (centres unmarked) [DIH[…]]	0.150%	0.300%	0.105 mg/cm^2	0.210 mg/cm^2
CC1(C)C2CC=C(CO)C1C2 (centres unmarked) [MYRTENOL, myrtenol]	0.500%	0.900%	0.350 mg/cm^2	0.630 mg/cm^2
CC(C)=CCC/C(C)=C/CO [GERANIOL, geraniol]	0.005%	0.020%		0.014 mg/cm^2
CC1(C)C2CCC(CO)C1C2 (stereo not drawn) [Cis MYRTANOL]	0.600%	1.000%	0.420 mg/cm^2	0.700 mg/cm^2
CC(C)=C1CC[C@@H](C)CC1=O [PULEGONE]	0.400%	0.700%		0.490 mg/cm^2
C=C(C)[C@@H]1CC[C@@H](C)C[C@H]1O [ISOPULEGOL, isopulegol]	0.500%	0.800%		0.560 mg/cm^2
CC1C(O)CC2CC1C2(C)C (centres unmarked) [ISOPINO-CAMPHEOL, iso-pinocampheol]	0.200%	0.300%	0.140 mg/cm^2	0.210 mg/cm^2
C=C(C)C1CC=C(C)C(OC(=O)CC)C1 (centres unmarked) [CARVYL PROPRIONATE, carvyl propionate]	0.200%	0.600%	0.140 mg/cm^2	0.420 mg/cm^2
CC(C)=CCCC(C)=CC=O [CITRAL]	0.300%	0.600%		0.420 mg/cm^2
CC(C)=CCC/C(C)=C\CO [NEROL, nerol]	0.500%	0.800%		0.560 mg/cm^2
CC1=CC=C(C(C)C)CC1	0.900%	1.500%		1.050 mg/cm^2
C=C(C)[C@@H]1CC=C(CO)CC1 [PERILLIL ALCOHOL, perillyl alcohol]	0.010%	0.030%		0.020 mg/cm^2
C=C(C)C1CCC(C)C(O)C1 (centres unmarked) [DIHYDRO CARVEOL, dihydrocarveol]	0.400%	0.900%	0.280 mg/cm^2	0.630 mg/cm^2
C=C(C)[C@@H]1CC=C(C)CC1 [- LIMONENE]	3.000%	4.000%		2.800 mg/cm^2
C=C(C)C1CCC(C)C(=O)C1 (centres unmarked) [DIHYDRO CARVONE]	0.200%	0.500%		0.350 mg/cm^2
C=C(C)[C@H]1CC=C(C)CC1 [+ LIMONENE]	2.000%	3.000%		2.100 mg/cm^2
CC1CCC(C(C)C)C(OC(=O)C(C)O)C1 (centres unmarked) [MENTHYL LACTATE, menthyl lactate]	0.050%	0.100%		0.070 mg/cm^2
CC(=O)O[C@@H]1C[C@H]2CC[C@]1(C)C2(C)C (racemic) [ISO BORNYL ACETATE]	0.600%	0.800%		0.560 mg/cm^2
C=C1CCC2CC1C2(C)C (stereo not drawn) [β PINENE]	0.200%	1.100%		0.770 mg/cm^2
C=CC(C)(O)CCC=C(C)C (centres unmarked) [LINALOOL, linalool]	0.020%	0.080%		0.056 mg/cm^2
CC1=CCC2C(C1)C2(C)C (centres unmarked) [CARENE]	1.000%	2.000%		1.400 mg/cm^2
IONONE	0.250%	0.600%	0.170 mg/cm^2	0.420 mg/cm^2
C=CC(C)CCCC(C)(C)O (centres unmarked) [DIHYDRO MYRCENOL, dihydro-myrcenol]	0.600%	0.800%		0.560 mg/cm^2
CC1=CC(O)C2CC1C2(C)C (stereo not drawn) [Cis VERBENOL, cis-verbenol]	1.000%	2.000%	0.700 mg/cm^2	1.400 mg/cm^2
CC(C)=CCCC(C)CCO (stereo not drawn) [β-CITRONELLOL, β-citronellol]	0.020%	0.070%		0.049 mg/cm^2
C=C(C)C1CC=C(C)[C@@H](O)C1 (some centres unmarked) [CARVEOL, carveol]	0.600%	1.500%		1.050 mg/cm^2
CC1CCC(C(C)C)C(O)C1 (centres unmarked) [MENTHOL, menthol]	0.030%	0.150%		0.105 mg/cm^2
CC1=CCC(O)(C(C)C)CC1 (centres unmarked) [terpinen-4-ol]	0.020%	0.090%		0.063 mg/cm^2
